Test system: human cardiac organoid cultured in the HEM hydrogel
Test: Drug reactivity of HEM scaffold-based human cardiac organoid by calcium imaging
Format: cell-based
Details: 7th day of culture, HEM hydrogel 4 mg/ml
Description: In order to check the reactivity of the human cardiac organoid cultured in the HEM hydrogel (4 mg/ml) to drugs, treatment with two representative drugs (isoproterenol and propranolol) affecting the heart rate was performed on the 7th day of culture, and reaction of the organoid thereto was checked through calcium imaging.

Row | Compound | beating of cardiac organoid (isoproterenol 1 μM) | beating of cardiac organoid (propranolol 10 μM)
1 | CC(C)NCC(O)c1ccc(O)c(O)c1 (centres unmarked) [isoproterenol] | increased | 
2 | CC(C)NCC(O)COc1cccc2ccccc12 (centres unmarked) [propranolol] |  | decreased

Source: patent US20230108699A1, “HEART EXTRACELLULAR MATRIX-DERIVED SCAFFOLD FOR CULTURE AND TRANSPLANTATION OF CARDIAC ORGANOID AND METHOD OF PREPARING THE SAME” (CELLARTGEN INC., priority 2020, published 2023)
